In brackets after ≈: the same amount, converted by molar mass.
Key:
[1] = test system: human hepatocellular carcinoma (HepG-2) cell line; test: MTT cytotoxicity, HepG-2
[2] = test system: caspase-3 in Caco-2 cells; test: Caspase-3 ELISA in treated Caco-2 cells; format: cell-based, human; settings: Caco-2 cells treated at the IC50 value, mean ± SE, n = 3
Method: (§1) Following the treatment of HepG-2, Caco-2, A549, and BJ-1 cells with the SB-CuO-NPs at their respective IC50 values, as illustrated in Figure 9 and detailed in Table 5, an assessment of the activities of the caspase-3 and Bcl-2 enzymes was conducted in the treated cells. […] This mechanism ultimately triggers apoptosis. Additionally, the increased activity of caspase-3 results in a decrease in the expression of cyclin D1 and CDK-2 mRNA, thereby promoting the arrest of the G1 phase of the cell cycle. Othman et al. further noted that the biosynthesized M-NPs facilitate apoptosis by inhibiting the expression of the PI3K/AKT and Ras/Raf/ERK protein signaling pathways.
(§2) Invitrogen Corporation, following the manufacturer's instructions.

[3] = target: T1, 5-LOX enzyme (human recombinant) (Homo sapiens, UniProt P09917); test: 5-Lipoxygenase inhibition assay; format: biochemical; settings: mean ± SE, n = 3
T1 construct: purchased Sigma-Aldrich 437996
T1 sequence (P09917 1-674): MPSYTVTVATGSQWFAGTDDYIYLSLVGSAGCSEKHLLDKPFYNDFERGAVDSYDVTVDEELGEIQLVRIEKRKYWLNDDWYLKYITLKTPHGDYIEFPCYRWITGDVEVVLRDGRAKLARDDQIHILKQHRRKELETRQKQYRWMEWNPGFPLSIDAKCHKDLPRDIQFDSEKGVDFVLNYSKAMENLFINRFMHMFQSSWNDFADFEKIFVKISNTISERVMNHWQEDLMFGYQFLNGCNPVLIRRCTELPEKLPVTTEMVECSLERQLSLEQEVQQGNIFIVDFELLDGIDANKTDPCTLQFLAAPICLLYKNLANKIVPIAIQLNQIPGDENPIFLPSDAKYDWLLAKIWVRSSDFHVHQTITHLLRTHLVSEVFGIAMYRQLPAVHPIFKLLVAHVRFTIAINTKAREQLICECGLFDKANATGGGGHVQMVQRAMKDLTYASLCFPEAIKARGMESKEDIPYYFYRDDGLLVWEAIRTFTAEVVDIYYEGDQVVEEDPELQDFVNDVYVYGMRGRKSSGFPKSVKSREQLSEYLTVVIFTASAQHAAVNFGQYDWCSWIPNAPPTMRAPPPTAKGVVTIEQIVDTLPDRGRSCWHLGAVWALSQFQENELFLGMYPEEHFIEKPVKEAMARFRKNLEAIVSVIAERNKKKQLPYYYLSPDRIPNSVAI

[4] = test system: Bcl-2 in HepG-2 cells; test: Bcl-2 ELISA in treated HepG-2 cells; format: cell-based, human; settings: HepG-2 cells treated at the IC50 value, mean ± SE, n = 3
Method: as §1, §2

[5] = test system: caspase-3 in A549 cells; test: Caspase-3 ELISA in treated A549 cells; format: cell-based, human; settings: A549 cells treated at the IC50 value, mean ± SE, n = 3
Method: as §1, §2

[6] = target: acetylcholinesterase (AChE) (Homo sapiens, UniProt P22303); test: biochemical; settings: mean ± SE, n = 3
Method: The absorbance was measured at 540 nm using a UV-Visible spectrophotometer. The IC50 of each tested sample was calculated by plotting a curve using a series of sample concentrations against the percent of α-amylase inhibition.
The inhibition percentage (%) of the α-glucosidase enzyme was determined using the […]
standard drug. Five μL of the α-glucosidase solution (10 units mL−1, 0.1moll−1 potassium phosphate buffer, pH 6.8) was pre -mixed with 10 μL of the sample solution at different concentrations (in 10% DMSO) i n 620 μL of 0.1 moll−1 potassium […]
phosphate buffer (pH 6.8). […]
phenyl glucopyranoside (pNPG, 10 mmoll−1) as a substrate was added to the mixture […]
minutes, followed by the addition of 650 μL of 1 moll−1 Na2CO3 solution to terminate the reaction. The amount of released product (p-nitro phenol) was measured at 410 […]
activity. The inhibition assay was performed in triplicate for all tests. The IC50 of each tested sample was calculated by plotting a curve using a series of sample concentrations against the percent of α-glucosidase inhibition.
3.4. Anti-Alzheimer's activity
In this study, we assessed the inhibition percentage of the acetylcholinesterase (AChE) enzyme using Ellman's method with donepezil as the standard drug. […] After incubation, 5 µL of AChE at a concentration of 0.3 U/mL was added to start the reaction, and the absorbance […]

[7] = test system: Bcl-2 in A549 cells; test: Bcl-2 ELISA in treated A549 cells; format: cell-based, human; settings: A549 cells treated at the IC50 value, mean ± SE, n = 3
Method: as §1, §2

Chain of acetylcholinesterase (AChE) (P22303 32-614, species assumed): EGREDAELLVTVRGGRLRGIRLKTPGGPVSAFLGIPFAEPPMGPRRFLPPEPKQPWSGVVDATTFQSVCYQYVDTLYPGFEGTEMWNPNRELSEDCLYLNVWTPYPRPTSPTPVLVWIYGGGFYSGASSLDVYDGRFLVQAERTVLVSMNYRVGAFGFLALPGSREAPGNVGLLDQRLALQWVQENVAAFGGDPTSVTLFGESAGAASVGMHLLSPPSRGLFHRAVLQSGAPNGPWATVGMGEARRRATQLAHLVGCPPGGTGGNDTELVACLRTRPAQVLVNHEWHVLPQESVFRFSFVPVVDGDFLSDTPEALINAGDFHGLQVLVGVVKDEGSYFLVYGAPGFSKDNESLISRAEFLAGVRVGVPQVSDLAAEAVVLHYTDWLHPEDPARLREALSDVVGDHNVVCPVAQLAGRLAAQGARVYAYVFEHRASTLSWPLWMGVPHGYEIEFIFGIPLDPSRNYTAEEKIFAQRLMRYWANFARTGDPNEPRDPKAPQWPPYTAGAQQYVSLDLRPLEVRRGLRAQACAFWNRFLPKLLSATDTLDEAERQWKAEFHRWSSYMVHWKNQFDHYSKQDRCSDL

**Q.** With `Cc1nn(-c2ccccc2)c(Cl)c1C=NN=C1C(=O)Nc2ccccc21` [SB] as the compound, how does the viability at 31.13 µg/mL ([1]; HepG2) read?
**A.** The viability at 31.13 µg/mL was 87.6%.

**Q.** What about the viability at 62.5 µg/mL ([1]; HepG2) of the same compound?
**A.** The viability at 62.5 µg/mL was 74.6%.

**Q.** And the viability at 125 µg/mL ([1]; HepG2)?
**A.** The viability at 125 µg/mL was 53.1%.

**Q.** What about the viability at 250 µg/mL ([1]; HepG2) of the same compound?
**A.** The viability at 250 µg/mL was 40.2%.

**Q.** What about the viability at 500 µg/mL ([1]; HepG2) of the same compound?
**A.** Its viability at 500 µg/mL is 19.3%.

**Q.** What about the IC50 ([1]; HepG2, 48 h, read-out: Median Inhibitory Concentration (IC50) HepG-2) of the same compound?
**A.** The IC50 was 127 ± 3.13 µg/mL (≈ 350 µM).

**Q.** And the Caspase-3 [2]?
**A.** The Caspase-3 was 144.28 ± 0.22 pg/mL.

**Q.** What about the inhibition at 100 µg/mL ([3]; at 100 µg/mL, read-out: 5-LOX Inhib. (%)) of the same compound?
**A.** Its inhibition at 100 µg/mL is 26.71 ± 0.18%.

**Q.** What about the IC50 [3] of the same compound?
**A.** Its IC50 is 36.6 µM.

**Q.** What about the Bcl-2 [4] of the same compound?
**A.** The Bcl-2 was 7.32 ± 0.10 ng/mL.

**Q.** What about the Caspase-3 [5] of the same compound?
**A.** Its Caspase-3 is 134.94 ± 0.18 pg/mL.

**Q.** What about the inhibition at 100 µg/mL ([6]; at 100 µg/mL, read-out: Acetylcholinesterase (AChE) Inhib. (%)) of the same compound?
**A.** Its inhibition at 100 µg/mL is 32.64 ± 0.16%.

**Q.** What about the IC50 [6] of the same compound?
**A.** Its IC50 is 19.2 µM.

**Q.** And the Bcl-2 [7]?
**A.** The Bcl-2 was 8.26 ± 0.03 ng/mL.
